For 11 molecules, IC50 results are on record in ChEMBL document CHEMBL5223114, “Design, synthesis and biological evaluation of novel macrocyclic derivatives bearing aniline pyrimidine scaffolds as EGFR-TKIs” (Bioorg Med Chem Lett, 2022).

Each structure is given as a SMILES string. Some results are limits rather than exact numbers.

By IC50 is commonly meant the concentration needed to halve the response being measured.

Experiment [1] deals with Epidermal growth factor receptor (Homo sapiens, UniProt P00533, L858R/T790M). Description: Inhibition of EGFR L858R/T790M double mutant (unknown origin).
Sequence of Epidermal growth factor receptor (Homo sapiens, UniProt P00533, L858R/T790M) (P00533 25-1210 T790M/L858R limits assumed): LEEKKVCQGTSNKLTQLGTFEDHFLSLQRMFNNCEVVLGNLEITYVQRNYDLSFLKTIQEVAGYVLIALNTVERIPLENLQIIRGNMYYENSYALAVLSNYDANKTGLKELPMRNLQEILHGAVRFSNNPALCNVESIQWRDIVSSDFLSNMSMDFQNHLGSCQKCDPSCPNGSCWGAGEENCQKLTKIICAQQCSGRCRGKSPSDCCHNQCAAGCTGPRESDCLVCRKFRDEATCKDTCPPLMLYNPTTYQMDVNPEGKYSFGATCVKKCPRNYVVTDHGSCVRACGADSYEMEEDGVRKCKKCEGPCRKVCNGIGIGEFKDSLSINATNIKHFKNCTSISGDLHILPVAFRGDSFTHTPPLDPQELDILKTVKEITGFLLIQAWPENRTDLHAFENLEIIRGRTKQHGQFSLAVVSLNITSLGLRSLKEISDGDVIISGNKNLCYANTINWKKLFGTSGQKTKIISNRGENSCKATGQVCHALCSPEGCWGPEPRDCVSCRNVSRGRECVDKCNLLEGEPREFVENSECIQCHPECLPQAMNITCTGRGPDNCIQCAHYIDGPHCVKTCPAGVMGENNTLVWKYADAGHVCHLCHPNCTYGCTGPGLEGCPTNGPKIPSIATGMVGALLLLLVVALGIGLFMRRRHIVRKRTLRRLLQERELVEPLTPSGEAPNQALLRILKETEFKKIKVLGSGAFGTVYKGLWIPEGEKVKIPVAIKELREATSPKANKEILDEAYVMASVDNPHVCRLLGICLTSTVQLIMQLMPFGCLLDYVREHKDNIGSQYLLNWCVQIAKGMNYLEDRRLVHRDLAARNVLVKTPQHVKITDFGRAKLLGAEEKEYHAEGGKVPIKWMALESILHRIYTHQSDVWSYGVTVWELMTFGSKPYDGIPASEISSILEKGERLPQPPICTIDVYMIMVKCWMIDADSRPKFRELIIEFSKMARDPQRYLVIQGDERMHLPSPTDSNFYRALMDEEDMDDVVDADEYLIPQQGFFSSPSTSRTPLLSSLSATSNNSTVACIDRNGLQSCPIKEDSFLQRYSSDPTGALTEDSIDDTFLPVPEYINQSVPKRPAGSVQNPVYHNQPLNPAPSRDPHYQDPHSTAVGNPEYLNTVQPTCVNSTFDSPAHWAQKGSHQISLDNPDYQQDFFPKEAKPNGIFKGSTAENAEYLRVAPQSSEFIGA
The target of experiment [2] is Epidermal growth factor receptor (Homo sapiens, UniProt P00533, 746-750DEL/C797S/T790M). The experiment in a line: Inhibition of EGFR d746-750/T790M/C797S triple mutant (unknown origin).
Sequence of Epidermal growth factor receptor (Homo sapiens, UniProt P00533, 746-750DEL/C797S/T790M) (P00533 whole entry, looked up, stated change not applied): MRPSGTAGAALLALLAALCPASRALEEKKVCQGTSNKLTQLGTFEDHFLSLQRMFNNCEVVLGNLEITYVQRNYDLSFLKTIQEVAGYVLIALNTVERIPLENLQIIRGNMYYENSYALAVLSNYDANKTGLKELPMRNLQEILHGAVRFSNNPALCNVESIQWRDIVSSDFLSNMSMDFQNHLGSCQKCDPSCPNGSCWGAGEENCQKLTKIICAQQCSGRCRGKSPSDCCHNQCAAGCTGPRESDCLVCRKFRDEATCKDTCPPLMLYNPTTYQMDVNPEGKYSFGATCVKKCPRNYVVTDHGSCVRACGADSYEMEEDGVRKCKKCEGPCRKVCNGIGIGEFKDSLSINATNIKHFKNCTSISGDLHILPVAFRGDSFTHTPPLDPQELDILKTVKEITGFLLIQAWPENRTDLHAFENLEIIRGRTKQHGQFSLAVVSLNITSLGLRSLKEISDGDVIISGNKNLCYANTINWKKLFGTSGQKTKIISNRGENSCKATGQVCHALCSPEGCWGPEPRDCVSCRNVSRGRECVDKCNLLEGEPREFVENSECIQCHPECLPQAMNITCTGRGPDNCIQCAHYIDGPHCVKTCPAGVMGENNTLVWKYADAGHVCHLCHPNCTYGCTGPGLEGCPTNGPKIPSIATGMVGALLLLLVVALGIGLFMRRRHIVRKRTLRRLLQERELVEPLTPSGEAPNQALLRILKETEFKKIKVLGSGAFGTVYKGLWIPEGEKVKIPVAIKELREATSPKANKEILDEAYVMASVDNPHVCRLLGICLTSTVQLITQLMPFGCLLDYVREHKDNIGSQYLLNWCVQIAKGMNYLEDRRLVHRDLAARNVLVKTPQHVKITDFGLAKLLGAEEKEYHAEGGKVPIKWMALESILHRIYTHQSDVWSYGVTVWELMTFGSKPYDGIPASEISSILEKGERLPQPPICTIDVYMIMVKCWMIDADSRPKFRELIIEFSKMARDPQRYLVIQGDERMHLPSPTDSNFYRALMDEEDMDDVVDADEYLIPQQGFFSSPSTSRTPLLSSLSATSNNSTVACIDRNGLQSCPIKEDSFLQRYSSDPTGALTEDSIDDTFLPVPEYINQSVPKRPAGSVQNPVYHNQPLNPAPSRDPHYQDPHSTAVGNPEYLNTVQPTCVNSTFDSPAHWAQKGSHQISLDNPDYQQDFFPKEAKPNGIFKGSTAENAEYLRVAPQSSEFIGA
Experiment [3] addresses Epidermal growth factor receptor (Homo sapiens, UniProt P00533, 746-750DEL/T790M). The experiment in a line: Inhibition of EGFR d746-750/T790M double mutant (unknown origin).
Experiment [4] deals with BaF3. Description: Antiproliferative activity against mouse BaF3 cells harboring EGFR del19/T790M double mutant assessed as inhibition of cell growth incubated for 72 hrs by CCK-8 assay. In kind it is functional, cell-based. The settings on record: BaF3, 72 h. (Tetrazolium dyes change colour on reduction, which living cells bring about.)
In experiment [5] the test system is BaF3. Description: Antiproliferative activity against mouse BaF3 cells harboring EGFR del19/T790M/C797S triple mutant assessed as inhibition of cell growth incubated for 72 hrs by CCK-8 assay. The settings on record: BaF3, 72 h. In kind it is functional, cell-based.

Sequence of Epidermal growth factor receptor (Homo sapiens, UniProt P00533, 746-750DEL/T790M) (P00533 whole entry, looked up, stated change not applied): as above

In the case of `C=CC(=O)N1CCCCCCCn2cc(c3ccccc32)-c2ccnc(n2)Nc2cc1c(OCCCF)cc2F`, the IC50 is 25.7 nM in experiment [1], above 100 nM in experiment [2] and 2.96 nM in experiment [3].
For the molecule `C=CC(=O)N1CCCCCCn2cc(c3ccccc32)-c2ccnc(n2)Nc2cc1ccc2OC`, the 50% inhibitory concentration (IC50) in experiment [1] was 8.31 nM; in experiment [2], above 100 nM; in experiment [3], 0.47 nM; in the experiment with BaF3 [4] it was 51 nM; with BaF3 [5] it was 893 nM.
Regarding `C=CC(=O)N1CCCCCCCCCn2cc(c3ccccc32)-c2ccnc(n2)Nc2cccc1c2`, the IC50 in experiment [1] is 25.2 nM; in experiment [2] it was above 100 nM; in experiment [3], 13.2 nM.
As for `C=CC(=O)N1CCCCCCn2cc(c3ccccc32)-c2ccnc(n2)Nc2cc1c(OCCCF)cc2F`, the half-inhibitory concentration (IC50) in experiment [1] is 13.2 nM; in experiment [2] it was above 100 nM; in experiment [3] it was 0.6 nM; in the experiment with BaF3 [4], 63 nM; in the experiment on BaF3 [5], 835 nM.
`C=CC(=O)N1CCCCCCCn2cc(c3ccccc32)-c2ccnc(n2)Nc2cccc1c2`: the IC50 is 3.45 nM in experiment [1]; 55.3 nM in experiment [2]; 0.55 nM in experiment [3]; 218 nM with BaF3 [4]; 811 nM in the experiment with BaF3 [5].
With `C=CC(=O)N1CCCCCCCCn2cc(c3ccccc32)-c2ccnc(n2)Nc2cccc1c2`, the results for the IC50 in experiment [1], in experiment [2] and in experiment [3] were 20.1 nM, 86.5 nM and 7.03 nM, respectively.
As for `C=CC(=O)N1CCCCCCCn2cc(c3ccccc32)-c2ccnc(n2)Nc2cc1ccc2F`, the IC50 in the experiment with BaF3 [4] was 213 nM; with BaF3 [5], 712 nM.
Regarding `C=CC(=O)N1CCCCCCn2cc(c3ccccc32)-c2ccnc(n2)Nc2cccc1c2`, the IC50 in the experiment on BaF3 [4] came out at 215 nM; in the experiment on BaF3 [5], 839 nM.
Consider `C=CC(=O)N1CCCCCCCn2cc(c3ccccc32)-c2ccnc(n2)Nc2cc1ccc2OC`, for which the IC50 in experiment [1] is 10 nM; in experiment [2] it was above 100 nM; in experiment [3], 0.65 nM; with BaF3 [4], 148 nM; in the experiment with BaF3 [5] it was 867 nM.
Consider `C=CC(=O)N1CCCCCCn2cc(c3ccccc32)-c2ccnc(n2)Nc2cc1ccc2F`, for which the IC50 in experiment [1] was 6.49 nM; in experiment [2], above 100 nM; in experiment [3], 0.22 nM; with BaF3 [4] it was 35 nM; in the experiment on BaF3 [5] it was 695 nM.
In the case of `C=CC(=O)Nc1cc(Nc2nccc(-c3cn(C)c4ccccc34)n2)c(OC)cc1N(C)CCN(C)C` [OSIMERTINIB], the IC50 is 33 nM in the experiment with BaF3 [4] and 859 nM in the experiment on BaF3 [5].
